Measured values reported in patent US20050209278A1, “Piperidinyl- and piperazinyl-sulfonylmethyl hydroxamic acids and their use as protease inhibitors” (priority 2002, published 2005).
Where two headings read alike, the source gives them in different places.

Key:
MMP-14 = biological target: T1, MMP-14 (Homo sapiens, UniProt P50281); assay: In vitro MMP inhibition, Ki determination (fluorogenic substrate II); type: biochemical; settings: read-out: MMP-14 Ki
T1 construct: The catalytic domain enzyme was expressed in E. coli inclusion bodies, solubilized in urea; made in house
Outline: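 Apparent Ki was fitted with Morrison's equation from reaction rates at a single low enzyme level. Enzyme was APMA- or trypsin-activated refolded MMP-14 catalytic domain, buffered at pH 7.5 with 10 mM CaCl2.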

MMP-2 = biological target: T2, MMP-2 (Homo sapiens, UniProt P08253); assay: as above; type: biochemical; settings: read-out: MMP-2 Ki
T2 construct: made in house; host or cells: MMP-2-transfected p2AHT2 cells
T2 sequence (P08253 110-660): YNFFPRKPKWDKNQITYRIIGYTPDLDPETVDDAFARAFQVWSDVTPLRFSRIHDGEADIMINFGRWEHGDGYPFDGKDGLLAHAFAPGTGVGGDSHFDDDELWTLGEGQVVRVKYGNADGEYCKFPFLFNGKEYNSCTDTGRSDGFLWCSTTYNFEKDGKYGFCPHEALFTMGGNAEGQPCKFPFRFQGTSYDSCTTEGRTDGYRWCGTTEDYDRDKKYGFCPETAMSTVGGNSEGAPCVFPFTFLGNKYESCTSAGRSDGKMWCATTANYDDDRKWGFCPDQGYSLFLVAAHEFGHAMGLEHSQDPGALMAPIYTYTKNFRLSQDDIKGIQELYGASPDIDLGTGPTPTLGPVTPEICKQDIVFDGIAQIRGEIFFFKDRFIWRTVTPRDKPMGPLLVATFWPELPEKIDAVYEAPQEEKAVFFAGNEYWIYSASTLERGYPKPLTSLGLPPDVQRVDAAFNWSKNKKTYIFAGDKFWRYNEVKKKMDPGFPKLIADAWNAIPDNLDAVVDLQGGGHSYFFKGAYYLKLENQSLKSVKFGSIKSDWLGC

SMILES | Ki (MMP-14; value outside parentheses) [nM] | Ki (MMP-2; value outside parentheses) [nM] | Ki (MMP-14; value not in parenthesis) [nM] | Ki (MMP-2; value not in parenthesis) [nM]
CCCCOc1ccc(N2CCN(S(=O)(=O)C3(C(=O)NO)CCN(c4ccc(Cl)nn4)CC3)CC2)cc1 [Example 281] | 1630 | 0.769 | – | –
CCCCOc1ccc(N2CCN(S(=O)(=O)C3(C(=O)NO)CCN(C(=O)CCCC)CC3)CC2)cc1 [Example 278] | 5260 | 0.81 | – | –
CCCCOc1ccc(N2CCN(S(=O)(=O)C3(C(=O)NO)CCN(C(C)=O)CC3)CC2)cc1 [Example 282] | 1480 | 0.5 | – | –
CCCCOc1ccc(N2CCN(S(=O)(=O)C3(C(=O)NO)CCN(C(=O)CN)CC3)CC2)cc1 [Example 292] | 6540 | 1.74 | – | –
CCCCOc1ccc(N2CCN(S(=O)(=O)C3(C(=O)NO)CCN(C(=O)OCC(C)(C)C)CC3)CC2)cc1 [Example 97] | – | – | > 10000 | 6.69
CCCCOc1ccc(N2CCN(S(=O)(=O)C3(C(=O)NO)CCN(C(=O)CO)CC3)CC2)cc1 [Example 271] | 1460 | 0.668 | – | –
CCCCOc1ccc(N2CCN(S(=O)(=O)C3(C(=O)NO)CCN(C(=O)c4ccccn4)CC3)CC2)cc1 [Example 277] | 3020 | 0.42 | – | –
CCCCOc1ccc(N2CCN(S(=O)(=O)C3(C(=O)NO)CCN(C(=O)CC(F)(F)F)CC3)CC2)cc1 [Example 265] | 3790 | 0.878 | – | –
Cc1cc(N2CCN(S(=O)(=O)C3(C(=O)NO)CCOCC3)CC2)ccc1OC(C)C [Example 299] | > 10000 | 22.5 | – | –
COCCN1CCC(C(=O)NO)(S(=O)(=O)N2CCC(c3ccc(CCC(F)(F)C(F)(F)F)cc3)CC2)CC1 [Example 312] | 2040 | 0.52 | – | –
CCCCOc1ccc(N2CCN(S(=O)(=O)C3(C(=O)NO)CCN(Cc4ccccc4)CC3)CC2)cc1F [Example 285] | > 10000 | 1.55 | – | –
O=C(NO)C1(S(=O)(=O)N2CCN(c3ccc(C(F)(F)F)cn3)CC2)CCOCC1 [Example 94] | – | – | 221 | 0.66
O=C(NO)C1(S(=O)(=O)N2CCN(c3ccc(COCC(F)(F)C(F)F)cc3)CC2)CCOCC1 [Example 71] | – | – | – | 2.35
CCCCOc1ccc(N2CCN(S(=O)(=O)C3(C(=O)NO)CCOCC3)CC2)nc1 [Example 100] | – | – | 411 | 0.13
CCCCOc1ccc(N2CCN(S(=O)(=O)C3(C(=O)NO)CCN(c4ccc(C)cc4)CC3)CC2)cc1 [Example 295] | 8650 | 8.76 | – | –
CCCCOc1ccc(N2CCN(S(=O)(=O)C3(C(=O)NO)CCN(Cc4ccco4)CC3)CC2)cc1 [Example 252] | 5180 | 1.38 | – | –
CCCCOc1ccc(N2CCN(S(=O)(=O)C3(C(=O)NO)CCN(c4ccc(C)nn4)CC3)CC2)cc1 [Example 275] | 818 | 0.381 | – | –
CCCCOc1ccc(N2CCN(S(=O)(=O)C3(C(=O)NO)CCN(C(=O)N(C)C)CC3)CC2)cc1 [Example 254] | 856 | 0.309 | – | –
CCCCOc1ccc(N2CCN(S(=O)(=O)C3(C(=O)NO)CCN(c4ccc(Cl)cc4)CC3)CC2)cc1 [Example 251] | > 10000 | 22.5 | – | –
CCCCc1ccc(N2CCN(S(=O)(=O)C3(C(=O)NO)CCN(c4cccnc4)CC3)CC2)nc1 [Example 96] | – | – | 816 | 0.2
CCCCCc1ccc(N2CCN(S(=O)(=O)C3(C(=O)NO)CCN(c4ncccn4)CC3)CC2)nc1 [Example 95] | – | – | 597 | 0.64
CCCCc1ccc(N2CCN(S(=O)(=O)C3(C(=O)NO)CCOCC3)CC2)c(F)c1 [Example 91] | – | – | 1740 | 1.22
CCCCOc1ccc(N2CCN(S(=O)(=O)C3(C(=O)NO)CCN(C(=O)c4ccccc4)CC3)CC2)cc1 [Example 255] | 5660 | 0.858 | – | –
CCCCOc1ccc(N2CCN(S(=O)(=O)C3(C(=O)NO)CCN(CC4CC4)CC3)CC2)cc1 [Example 298] | > 10000 | 3.27 | – | –
O=C(NO)C1(S(=O)(=O)N2CCN(c3ccc(COCC(F)(F)F)cc3)CC2)CCOCC1 [Example 72] | – | – | 7570 | 2.44
CCCCOc1ccc(N2CCN(S(=O)(=O)C3(C(=O)NO)CCN(C=O)CC3)CC2)cc1 [Example 269] | 1200 | 0.436 | – | –
O=C(NO)C1(S(=O)(=O)N2CCN(c3ccc(OCCCC(F)(F)F)cn3)CC2)CCOCC1 [Example 83] | – | – | 981 | 0.251
CC(C)COc1ccc(N2CCN(S(=O)(=O)C3(C(=O)NO)CCOCC3)CC2)cc1Cl [Example 79] | – | – | 8820 | 10.1
CCCCOc1ccc(N2CCN(S(=O)(=O)C3(C(=O)NO)CCN(C4CC4)CC3)CC2)cc1 [Example 301] | – | 0.88 | – | –

Results, then the compound that gave them:

Ki (MMP-14; value outside parentheses) [nM] | Ki (MMP-2; value outside parentheses) [nM] | Ki (MMP-14; value not in parenthesis) [nM] | Ki (MMP-2; value not in parenthesis) [nM] | SMILES
1930 | 0.761 | – | – | CCCCOc1ccc(N2CCN(S(=O)(=O)C3(C(=O)NO)CCN(C(N)=O)CC3)CC2)cc1 [Example 253]
31.7 | 0.444 | – | – | O=C(NO)C1(S(=O)(=O)N2CCC(c3ccc(Br)cn3)CC2)CCOCC1 [Example 306]
– | – | > 10000 | 2.56 | CCN1CCC(C(=O)NO)(S(=O)(=O)N2CCN(c3ccc(OCCCC(F)(F)F)cc3)CC2)CC1 [Example 78]
4890 | 4.06 | – | – | O=C(NO)C1(S(=O)(=O)N2CCN(c3ccc(SC(F)(F)F)cc3)CC2)CCS(=O)(=O)CC1 [Example 258]
– | – | 2430 | 0.407 | O=C(NO)C1(S(=O)(=O)N2CCN(c3ccc(OCCCC(F)(F)F)cc3F)CC2)CCOCC1 [Example 81]
– | 1.36 | – | – | COCCOc1ccc(N2CCN(S(=O)(=O)C3(C(=O)NO)CCN(C4CC4)CC3)CC2)cc1F [Example 297]
2800 | 0.467 | – | – | CCCCOc1ccc(N2CCN(S(=O)(=O)C3(C(=O)NO)CCN(C(=O)C4CC4)CC3)CC2)cc1 [Example 260]
645 | 0.407 | – | – | CCCCCc1ccc(C2CCN(S(=O)(=O)C3(C(=O)NO)CCOCC3)CC2)nc1 [Example 305]
> 10000 | 5.7 | – | – | CCCCOc1ccc(N2CCN(S(=O)(=O)C3(C(=O)NO)CCNCC3)CC2)cc1 [Example 276]
34 | 0.188 | – | – | CCc1ccc(N2CCN(S(=O)(=O)C3(C(=O)NO)CCCCC3)CC2)nc1 [Example 263]
– | – | 2360 | 2.2 | O=C(NO)C1(S(=O)(=O)N2CCN(c3ccc(OC4CCC4)c(F)c3)CC2)CCOCC1 [Example 73]
– | – | 9860 | 6.92 | CCCCOc1ccc(N2CCN(S(=O)(=O)C3(C(=O)NO)CCN(c4nc5ccccc5s4)CC3)CC2)cc1 [Example 93]
7310 | 2.76 | – | – | CCCCOc1ccc(N2CCN(S(=O)(=O)C3(C(=O)NO)CCN(C)CC3)CC2)cc1 [Example 280]
– | – | 225 | 0.17 | CCCCc1ccc(N2CCN(S(=O)(=O)C3(C(=O)NO)CCN(c4ncccn4)CC3)CC2)nc1 [Example 99]
– | – | 358 | 0.19 | O=C(NO)C1(S(=O)(=O)N2CCN(c3ccc(-c4ccccc4)cc3)CC2)CCOCC1 [Example 76]
– | – | > 10000 | 29.9 | CCCCOc1ccc(N2CCN(S(=O)(=O)C3(C(=O)NO)CCN(c4ccc(Cl)c(Cl)c4)CC3)CC2)cc1 [Example 250]
> 10000 | 0.836 | – | – | CCCCOc1ccc(N2CCN(S(=O)(=O)C3(C(=O)NO)CCN(C(=O)C(C)(C)C)CC3)CC2)cc1 [Example 267]
– | 6.73 | – | – | CCCCOc1ccc(N2CCN(S(=O)(=O)C3(C(=O)NO)CCN(c4ccc(C)cc4)CC3)CC2)cc1F [Example 296]
